Read-outs that look alike come from different tables or passages of the source.
Experiments:
[1] = cited from earlier work
[2] = type: in vivo, male Sprague-Dawley rats; details: rats
human UGT1A1 = details: ref 14; cited from earlier work
UGT1A3 = details: ref 14; cited from earlier work
plasma proteins = details: cited from earlier work
[3] = oral intake in human; cited from earlier work
human UGT1A9 = details: ref 14; cited from earlier work
P-gp = details: read-out: IC50, P-gp; cited from earlier work
BCRP = details: read-out: IC50, BCRP; cited from earlier work
CYP2C19 = details: in vitro; cited from earlier work
MRP2 = details: read-out: IC50, MRP2; cited from earlier work
[4] = markedly low water solubility and high permeability; cited from earlier work
[5] = cited from earlier work; remark: listed apart in the source
[6] = after multiple doses of telmisartan vs donafenib alone
[7] = oral sorafenib in humans, mass balance
[8] = after multiple doses of telmisartan vs sorafenib alone
[9] = after multiple doses of donafenib vs telmisartan alone

SMILES: [2H]C([2H])([2H])NC(=O)c1cc(Oc2ccc(NC(=O)Nc3ccc(Cl)c(C(F)(F)F)c3)cc2)ccn1 [Donafenib]
- N-oxidation (M2), % of total drug ([1]; ref 41): 24.76%
- glucuronidation (M7), % of total drug ([1]; ref 41): 4.82%
- decrease in t1/2 of donafenib [2, 6]: 35.0%
- increase in CLz/F of donafenib [2, 6]: 87.5%

SMILES: CNC(=O)c1cc(Oc2ccc(NC(=O)Nc3ccc(Cl)c(C(F)(F)F)c3)cc2)ccn1 [Sorafenib]
- inhibition of human UGT1A1 (human UGT1A1): potent inhibitor
- inhibitory effects on UGT1A3 (UGT1A3): no inhibitory effects
- binding to plasma proteins (plasma proteins; sorafenib, human): more than 99%
- time to maximum plasma concentration [3]: about 3 hours
- drug eliminated as oxidative metabolites [1, 7]: less than 5%
- drug eliminated as sorafenib-β-D-glucuronide (SG) [1, 7]: 15%
- inhibition of human UGT1A9 (human UGT1A9): potent inhibitor
- decrease in CLz/F of sorafenib [2, 8]: 46.0%
- decrease in Vz/F of sorafenib [2, 8]: 50.4%
- increase in AUC0-t of sorafenib [2, 8]: 77.7%
- increase in AUC0-∞ of sorafenib [2, 8]: 75.8%
- increase in Cmax of sorafenib [2, 8]: 60.9%

SMILES: CCCc1nc2c(C)cc(-c3nc4ccccc4n3C)cc2n1Cc1ccc(-c2ccccc2C(=O)O)cc1 [Telmisartan]
- IC50 (P-gp): 12.4 µM
- IC50 (BCRP): 6.7 µM
- inhibition of CYP2C19 (CYP2C19): minor inhibition
- IC50 (MRP2): 38.2 µM
- binding to plasma proteins (plasma proteins; telmisartan): 99.5%
- BCS class [4]: class II
- decrease in CLz/F of telmisartan [2, 9]: 57.3%
- decrease in Vz/F of telmisartan [2, 9]: 45.6%
- increase in AUC0-∞ of telmisartan [2, 9]: 0.98 fold
- effect of sorafenib on the pharmacokinetic parameters of telmisartan ([2]; multiple doses of sorafenib vs telmisartan alone): does not significantly affect
- proportion metabolized to acyl-glucuronides by UGT1A3 ([5]; ref 25,27): 11%
- half-life for elimination ([5]; ref 26): about 24 hours
- proportion metabolized to acyl-glucuronides by UGT1A3 ([5]; ref 34): 11%

— publication PMC12277590 (Drug Design, Development and Therapy, 2025)
